According to US5045302A, “Ligands and cationic complexes thereof with technetium-99m” (priority 1988, dated 1991):

Experiment: Rat biodistribution of Tc-99m complexes

Blood (2 min p.i.) [% Injected dose/organ]	Heart (2 min p.i.) [% Injected dose/organ]	Heart/Blood Counts/Gram Ratio (2 min p.i.)	Heart/Liver Counts/Gram Ratio (2 min p.i.)	Liver (2 min p.i.) [% Injected dose/organ]	Blood (60 min p.i.) [% Injected dose/organ]	Heart (60 min p.i.) [% Injected dose/organ]	Heart/Blood Counts/Gram Ratio (60 min p.i.)	Heart/Liver Counts/Gram Ratio (60 min p.i.)	Liver (60 min p.i.) [% Injected dose/organ]	Compound
11.4	0.79	1.01	0.58	19.2	1.58	0.54	4.69	0.96	7.71	COC(C)(C)CCP(CCP(CCC(C)(C)OC)CCC(C)(C)OC)CCC(C)(C)OC [Compound 16]
12.4	0.54	0.68	0.20	33.1	1.63	0.27	2.6	0.37	8.85	CCOCP(CCP(COCC)COCC)COCC [Compound 5]
7.46	1.00	1.96	0.81	18.8	0.73	0.96	20.0	2.13	6.96	CCOCCCP(CCCOCC)CCP(CCCOCC)CCCOCC [Compound 4]
5.86	1.14	2.99	0.92	17.1	1.03	0.86	13.9	1.59	7.88	COCC(COC)CP(CCP(CC(COC)COC)CC(COC)COC)CC(COC)COC [Compound 17]
18.8	0.46	0.37	1.29	3.27	0.88	0.03	0.6	0.76	0.67	COC(CCP(CCC(OC)OC)CCP(CCC(OC)OC)CCC(OC)OC)OC [Compound 19]
40.5	0.43	0.17	0.16	35.2	7.59	0.14	0.3	0.04	48.8	FC(F)(F)COCCCP(CCCOCC(F)(F)F)CCP(CCCOCC(F)(F)F)CCCOCC(F)(F)F [Compound 10]
12.2	0.62	0.70	1.01	8.22	0.67	0.51	9.4	2.48	2.24	COC(C)CCP(CCC(C)OC)CCP(CCC(C)OC)CCC(C)OC (stereo not shown) [Compound 15]
